The values below come from BindingDB's records for doi:10.1021/acs.biochem.7b00078 (The University of Queensland, 2017).

The term Kd denotes the free concentration of one partner at which half of the binding sites on the other are occupied at equilibrium, for simple one-to-one binding. The Ki is the equilibrium dissociation constant of an inhibitor or competing ligand from its target.

Peptide text beside a SMILES is read from it. * marks the point of attachment. FITC = O=C1OC2(c3ccc(O)cc3Oc3cc(O)ccc32)c2ccc(NC(=S)*)cc21; Biotin = O=C1N[C@H]2[C@H](CS[C@H]2CCCCC(=O)*)N1

Assay [1] concerns the target T1, Na(+)/H(+) exchange regulatory cofactor NHE-RF1 [1-140] (Homo sapiens, UniProt O14745).
T1 construct: 1-140
T1 sequence (O14745 whole entry): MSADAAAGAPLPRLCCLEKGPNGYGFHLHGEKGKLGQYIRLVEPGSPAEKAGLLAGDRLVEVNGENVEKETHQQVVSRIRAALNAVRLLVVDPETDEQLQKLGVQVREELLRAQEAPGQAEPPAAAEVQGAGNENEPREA
The assay is described as follows: Fluorescent Polarization Competition Assay. To be noted: 23 °C. Here is the method: (§1) Competition assays were performed in FP buffer (DTT was avoided for Cys-PTHRct-9) containing fixed concentrations of both the fluorescently labeled peptide andprotein following the protocol described by Madden and coworkers. [Cushing et al., Biochemistry, 47:10084-10098] This mixture was equilibrated for 20 min in the dark at room temperature. The unlabeled competitor peptide was dissolved and serially diluted in storage buffer supplemented with 5% DMSO (Sigma). Each serial dilution was aliquoted at 1/10 final volume, to which was added 9/10 volume of the protein/peptide mixture. All FP assays were performed in a 96-well format. Polarized fluorescence intensities were measured at 23 °C with a PerkinElmer Wallac Victor3 multilabel counter using excitation and emission wavelengths of 485 and 535 nm, respectively, for the FITC-labeled peptide.

The target in assay [2] is T2, Na(+)/H(+) exchange regulatory cofactor NHE-RF1 [133-300] (Homo sapiens, UniProt O14745).
T2 construct: 133-300
T2 sequence (O14745 whole entry): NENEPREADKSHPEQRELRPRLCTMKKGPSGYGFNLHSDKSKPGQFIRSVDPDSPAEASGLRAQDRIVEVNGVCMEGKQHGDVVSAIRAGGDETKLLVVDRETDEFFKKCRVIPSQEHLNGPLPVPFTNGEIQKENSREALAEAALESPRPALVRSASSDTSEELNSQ
As to the kind of experiment: Fluorescent Polarization Competition Assay. To be noted: 23 °C. On the procedure: as §1

For assay [3], the target named is T1, Na(+)/H(+) exchange regulatory cofactor NHE-RF1 [1-140]. As to the kind of experiment: Surface Plasmon Resonance (SPR). Conditions: pH 7.4; 15 °C. On the procedure:
(§2) SPR measurements were performed with a Biacore X100 instrument (GE Healthcare Life Sciences, Piscataway, NJ) at 15.0 °C. The biotinylated PTHRct-22 ligand was immobilized on an SA streptavidin sensor chip (GE Healthcare Life Sciences) usingthe manufacturer's protocol until the desired response target was reached. PDZ1 or PDZ2 analyte, dissolved in 10 mM HEPES buffer (pH 7.4), 150 mM NaCl, 3 mM EDTA, and 0.005% surfactant polysorbate 20, was injected on the PTHRct-coated sensor surface at increasing concentrations from 10 nM to 100 μM. At the end of each ligand injection−dissociation cycle, the sensor chip was regenerated with 4.0 M MgCl2, 50 mM triethylamine (pH 9.15), and HBS-EP buffer.

Assay [4] has as its target T2, Na(+)/H(+) exchange regulatory cofactor NHE-RF1 [133-300]. The assay is described as follows: Surface Plasmon Resonance (SPR). To be noted: pH 7.4; 15 °C. On the procedure: as §2
Assay [5] deals with T1, Na(+)/H(+) exchange regulatory cofactor NHE-RF1 [1-140]. The assay is described as follows: Isothermal Titration Calorimetry (ITC). Conditions: pH 8; 25 °C. Here is the method:
(§3) ITC measurements were conducted on a Microcal iTC200 (Malvern Instruments) in buffer consisting of 25 mM Tris (pH 8.0) and 100 mM NaCl. Proteins were exchanged into ITC buffer by gel filtration using a Superdex200 column. Wild-type modified synthetic peptides were purchased from Genscript and are described in Results. One millimolar PTHR peptides (wild-type and mutant variants) were titrated into 100 μM individual proteins, PDZ1 or PDZ2, at 25 °C.

The target of assay [6] is T2, Na(+)/H(+) exchange regulatory cofactor NHE-RF1 [133-300]. As to the kind of experiment: Isothermal Titration Calorimetry (ITC). To be noted: pH 8; 25 °C. Here is the method: as §3
(In ITC the heat of successive injections is recorded.)

`CSCC[C@H](NC(=O)[C@@H](NC(=O)[C@@H](NC(=O)[C@H](CCC(=O)O)NC(=O)[C@H](Cc1c[nH]c2ccccc12)NC(=O)[C@H](CCC(=O)O)NC(=O)[C@H](CCC(=O)O)NC(=O)[C@H](CCC(N)=O)NC(=O)[C@H](CC(C)C)NC(=S)Nc1ccc2c(c1)C(=O)OC21c2ccc(O)cc2Oc2cc(O)ccc21)[C@@H](C)O)C(C)C)C(=O)O` [FITC-LQEEWETVM] ({FITC}-LQEEWETVM-OH): the Kd in assay [1] (pH 7) is 1 µM; in assay [2] (pH 7), 0.6 µM.

As for `CSCC[C@H](NC(=O)[C@@H](NC(=O)[C@@H](NC(=O)[C@H](CCC(=O)O)NC(=O)[C@H](Cc1c[nH]c2ccccc12)NC(=O)[C@H](CCC(=O)O)NC(=O)[C@H](CCC(=O)O)NC(=O)[C@H](CCC(N)=O)NC(=O)[C@H](CC(C)C)NC(=O)[C@H](CC(C)C)NC(=O)[C@H](C)NC(=O)[C@@H]1CCCN1C(=O)[C@@H]1CCCN1C(=O)[C@H](CCCNC(=N)N)NC(=O)[C@H](CCC(=O)O)NC(=O)[C@@H]1CCCN1C(=O)[C@H](CS)NC(=O)[C@H](CO)NC(=O)[C@H](C)NC(=O)[C@H](CCC(=O)O)NC(=O)[C@H](CCC(=O)O)NC(=O)[C@H](CC(=O)O)NC(=O)CCCC[C@@H]1SC[C@@H]2NC(=O)N[C@@H]21)[C@@H](C)O)C(C)C)C(=O)O` (Biotin-DEEASCPERPPALLQEEWETVM-OH), the figures for the dissociation constant Kd in assay [3] and in assay [4] were 16 µM and 11.5 µM, respectively. Besides, the inhibition constant Ki in assay [2] (pH 7.4) was 7 µM.

Consider H-QEEWETVM-OH [QEEWETVM], for which the Kd in assay [5] came to 11.7 µM; in assay [6] it was 9.7 µM.

H-LQEEWETVM-OH [LQEEWETVM]: in assay [1] (pH 7.4), the Ki came out at 1.4 µM.
